Test results from US10406124B2, “Method of treatment of gynecological cancer with anti-RAGE antibodies” (Swansea University, priority 2014, dated 2019).
Like-named read-outs stand apart in the source and are kept apart here. Non-standard residues stand in square brackets, D forms with d. Residues, ends and D or L forms follow the SMILES beside them. *: point of attachment. Dolaproine = CO[C@@H]([C@@H]1CCCN1)[C@@H](C)C(=O)O; Dil = CC[C@H](C)[C@H](NC)[C@@H](CC(=O)O)OC; X1 = C[C@@H](N*)[C@@H](O)c1ccccc1; NMeV = CN[C@H](C(=O)O)C(C)C

Experiments:
[1] = tested on: TOV112D cells; test: Cell viability / cytotoxicity of RAGE ADCs in TOV112D ovarian cancer cells; format: cell-based, human; conditions: 24 h, free cytotoxin
Protocol: (§1) Endometrial (Ishikawa) or ovarian (TOV112D) cancer cells were cultured in 96-well plates and treated with an extended concentration range of MMAE, MMAF, RAGE MMAE or RAGE MMAF for 24 or 48 h. Data was analysed by non-linear regression and IC50 concentrations determined for each treatment.
Data are presented as box plots showing the median (line), 25th and 75th percentiles (box) and 10th and 90th percentile (whiskers), n=4. Data were analysed by ANOVA and Dunnett's pairwise multiple comparison t-test.
The linkers used in Examples 3 & 4 were directly compared. […] After treatment, cell viability (FIG. 17) was determined by a fluorescence-based cell viability assay (Apotox Glo Triplex assay, Promega) according to the manufacturer's instructions. […] Data were analysed by ANOVA and Dunnett's pairwise multiple comparison t-test. […]
Comparisons of the AA4, HG6 and DF6 ADCs to the SNIPER ADC were made within normal ovarian (HOSEpic) and ovarian cancer (TOV112D and SKOV3) cells, and normal endometrial (Healthy) and endometrial cancer (HEC1A, HEC1B and Ishikawa) cells. Cells were treated for 96 h with 5 μg/ml of each of the ADCs, and cell health monitored as previously described. […] Data are presented as mean (SEM), and were analysed by ANOVA and Dunnett's pairwise multiple comparison t-test.

[2] = tested on: Ishikawa cells; test: Cell viability / cytotoxicity of RAGE ADCs in Ishikawa endometrial cancer cells; format: cell-based; conditions: Homo sapiens, read-out: IC50 of drug alone
Protocol: as §1
After treatment, cell viability in both cell lines (FIG. 13), and cell apoptosis in Ishikawa cells (caspase activation; FIG. 14) were determined by a fluorescence-based cell viability assay (Apotox Glo Triplex assay, Promega) according to the manufacturer's instructions. Data are presented as box plots showing the median (line), 25th and 75th percentiles (box) and 10th and 90th percentile (whiskers), n=4. Data were analysed by ANOVA and Dunnett's pairwise multiple comparison t-test. […]

[3] = tested on: RAGE; test: RAGE protein expression by immunohistochemistry in endometrial biopsies of patients taking tamoxifen; format: in vivo, human
Protocol: RAGE protein expression was measured by Immunohistochemistry in endometrial biopsies from patients diagnosed with endometrial hyperplasia, Type I or Type II endometrial cancer (EC), postmenopausal controls as well as breast cancer patients taking tamoxifen as part of their treatment that have developed, or not, endometrial cancer. 138 patients were grouped as follows: PM (n=25, median=0.2), Hyperplasia (n=21, median=5.5), type I EC (n=18, median=1.5), type II EC (n=17, median=2), TX no EC (n=19, median=4), type I EC plus TX (n=21, median=4) and type II EC plus TX (n=17, median=0.2).
IHC samples were scored blind by three independent observers. Values shown are median IHC scores and statistical analysis was performed using a Mann-Whitney test *p<0.05, **p<0.01, ***p<0.001, compared to PM control.

SMILES	IC50 of drug alone [1]	IC50 ([2]; 24 h)	IC50 ([2]; 48 h)	RAGE expression, median IHC score ([3]; breast cancer patients taking tamoxifen, no endometrial cancer (TX no EC), n=19)	effect on endometrial RAGE expression ([3]; endometrium from EC patients taking vs not taking tamoxifen)	RAGE expression, median IHC score ([3]; type I EC plus TX, n=21)	RAGE expression, median IHC score ([3]; type II EC plus TX, n=17)
CC[C@H](C)[C@@H]([C@@H](CC(=O)N1CCC[C@H]1[C@H](OC)[C@@H](C)C(=O)N[C@H](C)[C@@H](O)c1ccccc1)OC)N(C)C(=O)[C@@H](NC(=O)[C@@H](NC)C(C)C)C(C)C [MMAE, (S)—N-((3R,4S,5S)-1-((S)-2-((1R,2R)-3-(((1S,2R)-1-hydroxy-1-phenylpropan-2-yl)amino)-1-methoxy-2-methyl-3-oxopropyl)pyrrolidin-1-yl)-3-methoxy-5-methyl-1-oxoheptan-4-yl)-N,3-dimethyl-2-((S)-3-methyl-2-(methylamino)butanamido)butanamide] (H-[NMeV]V[Dil][Dolaproine]-X1)	greater than the top concentration tested	1400 nM	460 nM	–	–	–	–
CC[C@H](C)[C@@H]([C@@H](CC(=O)N1CCC[C@H]1[C@H](OC)[C@@H](C)C(=O)N[C@@H](Cc1ccccc1)C(=O)O)OC)N(C)C(=O)[C@@H](NC(=O)[C@@H](NC)C(C)C)C(C)C [MMAF, (S)-2-((2R,3R)-3-((S)-1-((3R,4S,5S)-4-((S)—N,3-dimethyl-2-((S)-3-methyl-2-(methylamino)butanamido)butanamido)-3-methoxy-5-methylheptanoyl)pyrrolidin-2-yl)-3-methoxy-2-methylpropanamido)-3-phenylpropanoic acid] (H-[NMeV]V[Dil][Dolaproine]F-OH)	greater than the top concentration tested	1300 nM	630 nM	–	–	–	–
CC/C(=C(\c1ccccc1)c1ccc(OCCN(C)C)cc1)c1ccccc1 [tamoxifen]	–	–	–	4	upregulation of RAGE	4	0.2
